Structures can show the parent of a compound that is named as a salt. Where two headings read alike, the source gives them in different places.
Key:
[1] = system: HCT-116 cells; assay: Clonogenic survival assay with HCT-116 cells; assay type: cell-based; conditions: Homo sapiens, 24 hour compound exposure, read-out: Clonogenic survival IC50, HCT-116
Description: This assay was used to determine the concentration of a compound that results in irreversible loss of viability after a specified period of exposure. Essentially, cells are exposed to compound for a period of […], and are then transferred to compound-free growth medium. After continued incubation in the compound-free medium for a number of days, the number of colonies recovered is counted as an estimate of the number of surviving cells.
Media (RPMI-1640, 10% FCS, pen/strep) was pre-warmed to 37° C. in a water bath. Cells were incubated and grown at 37° C., 5% CO2. Cells were recovered by trypsinization from sub-confluent plates and counted using a hemocytometer. 1×10^4 cells were plated in 25 mls of media in a 15 cm tissue culture dish. […] were set up for each test compound, and were incubated overnight at 37° C. The compound was diluted into media at 7 concentrations and the media on the cells was replaced with that containing the test compound. Two plates were set up for each concentration of the compound to be tested, as well as two control plates without compound. Plates were incubated as above for […], media was removed and replaced with fresh media, and the plates were incubated an additional 7 days and washed with PBS. Colonies were stained with crystal violet solution (0.4% crystal violet, 20% ethanol) for 5 minutes, washed twice with distilled water, and counted.

[2] = target: Cdk2 (Homo sapiens, UniProt P24941); assay: Cdk2 inhibition; assay type: biochemical
Source text: Further inhibition results for subject compounds of the invention against other CDKs and further kinases are shown in Table 5, Table II and described in Example 6.
Table 3, Table 4, Table 5 and Table II show the results obtained for inhibition of a broad range of such kinases for subject compounds of the invention.

[3] = target: T1, Blk (Homo sapiens, UniProt P51451); assay: Blk kinase assay; assay type: biochemical
T1 construct: purchased Upstate 14-517
Description: • 1. 10× Reaction buffer: […], 1 mM sodium orthovanadate, 1% 2-mercaptoethanol. • 2. Enzyme Dilution Buffer (EDB): 50 mM Tris-HCl pH 7.5, 0.1 mM EGTA, 0.1 mM sodium orthovanadate, 0.1% 2-mercaptoethanol 0.03% Brij-35. • 3. Blk (human), active: Dilute to 4-40 ng/μl with EDB. Use 2.5 μl per assay point. • 4. Poly(Glu-4-Tyr) (4:1): Prepare a 1 mg/ml stock. Use 2.5 μl per assay point for a final assay concentration of 0.1 mg/ml per assay point. • 5. [γ-^32P]ATP: Stock 1 mCi/100 μl (3000 Ci/mmol, obtained from PerkinElmer, Cat. # BLU002A). Make 10 μl aliquots (100 μCi/vial). Before starting the assay, dilute an aliquot to 1 μCi/μl with 90 μl of 75 mM MgCl2 and 500 μM cold ATP in 20 mM MOPS, pH 7.2, 25 mM β-glycerol phosphate, 5 mM EGTA, 1 mM sodium orthovanadate, 1 mM dithiothreitol.
• 1. Add 2.5 μl of 10× Reaction Buffer per assay. • 2. Add 2.5 μl (0.1 mg/ml) of Poly (Glu-4-Tyr) (4:1). • 3. Add 2.5 μl (10-100 ng) of Blk (human), active. • 4. Add 7.5 μl sterile, distilled water. • 5. Add 10 μl of the diluted [γ-^32P]ATP solution. • 6. Incubate for 10 minutes at 30° C. • 7. Transfer a 20 μl aliquot onto the center of a […]. • 8. Wash the assay squares three times for 5 minutes with 0.75% phosphoric acid. • 9. Wash the assay squares once for 5 minutes with acetone. • 10. Transfer the assay squares to vial and add 1 ml scintillation cocktail. • 11. Read in scintillation counter. Compare cpm of enzyme samples to cpm of control samples that contain background control.

[4] = target: T2, Fyn (Homo sapiens, UniProt P06241); assay: Fyn kinase assay; assay type: biochemical
T2 construct: purchased Upstate 14-441
Description: • 1. Assay Buffer: 200 mM Tris-HCl pH 7.5, 0.4 mM EGTA, 0.4 mM sodium orthovanadate. • 2. Magnesium/ATP Cocktail (Catalog #20-113): 500 μM cold ATP and 75 mM magnesium chloride in 20 mM MOPS, pH 7.2, 25 mM α-glycerol phosphate, 5 mM EGTA, 1 mM sodium orthovanadate, 1 mM dithiothreitol. • 3. [γ-^32P]ATP: Stock 1 mCi/100 μl (3000 Ci/mmol, obtained from DuPont-NEN). Make 10 μl aliquots (100 μCi/vial). Before starting the assay, dilute an aliquot with 90 μl of Magnesium/ATP Cocktail. • 4. Enzyme Dilution Buffer: 20 mM MOPS pH 7.5, 1 mM EDTA, 0.01% Brij-35, 5% glycerol, 0.1% β-mercaptoethanol, 1 mg/ml BSA. • 5. Fyn: Dilute with Enzyme Dilution Buffer to prepare a 4 ng-40 ng/μl stock. Use 2.5 μl per assay point. • 6. Src Substrate Peptide (Catalog #12-140): Dilute to 2.5 mM with distilled water. Use 2.5 μl per say point.
• 1. Add 6.25 μl of Assay Buffer per assay. • 2. Add 2.5 μl of diluted Fyn. • 3. Add 2.5 μl Src Substrate peptide (250 μM). • 4. Add 3.75 μl distilled water. • 5. Add 10 μl of the [γ-^32P]ATP solution. • 6. Incubate for 10 minutes at 30° C. • 7. Transfer a 20 μl aliquot onto the center of a 2 cm×2 cm P81 paper. • 8. Wash assay squares three times with 0.75% phosphoric acid for 5 minutes per wash. • 9. Wash assay squares once with acetone for 1-2 minutes. • 10. Transfer assay squares to a scintillation vial and add 1 ml scintillation cocktail. • 11. Read in scintillation counter. Compare cpm of enzyme samples to cpm of control samples that contain no enzyme (background control).

[5] = read-out: BLK Inhibition (IC50)
[6] = read-out: FYN Inhibition (IC50)

T1 sequence (P51451 whole entry): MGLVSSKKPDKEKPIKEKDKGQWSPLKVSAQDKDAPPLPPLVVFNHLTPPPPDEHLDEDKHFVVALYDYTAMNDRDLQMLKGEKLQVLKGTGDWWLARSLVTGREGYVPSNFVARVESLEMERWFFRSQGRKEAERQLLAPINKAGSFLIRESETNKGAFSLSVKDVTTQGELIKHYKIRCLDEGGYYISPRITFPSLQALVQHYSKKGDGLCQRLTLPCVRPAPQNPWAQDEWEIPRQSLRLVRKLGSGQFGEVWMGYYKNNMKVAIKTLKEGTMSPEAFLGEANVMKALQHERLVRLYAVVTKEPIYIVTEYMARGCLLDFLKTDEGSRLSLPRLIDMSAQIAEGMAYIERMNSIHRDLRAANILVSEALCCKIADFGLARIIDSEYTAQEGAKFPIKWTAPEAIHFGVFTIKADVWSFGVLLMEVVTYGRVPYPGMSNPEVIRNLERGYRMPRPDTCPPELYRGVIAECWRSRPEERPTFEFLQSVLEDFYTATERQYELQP
T2 sequence (P06241 whole entry): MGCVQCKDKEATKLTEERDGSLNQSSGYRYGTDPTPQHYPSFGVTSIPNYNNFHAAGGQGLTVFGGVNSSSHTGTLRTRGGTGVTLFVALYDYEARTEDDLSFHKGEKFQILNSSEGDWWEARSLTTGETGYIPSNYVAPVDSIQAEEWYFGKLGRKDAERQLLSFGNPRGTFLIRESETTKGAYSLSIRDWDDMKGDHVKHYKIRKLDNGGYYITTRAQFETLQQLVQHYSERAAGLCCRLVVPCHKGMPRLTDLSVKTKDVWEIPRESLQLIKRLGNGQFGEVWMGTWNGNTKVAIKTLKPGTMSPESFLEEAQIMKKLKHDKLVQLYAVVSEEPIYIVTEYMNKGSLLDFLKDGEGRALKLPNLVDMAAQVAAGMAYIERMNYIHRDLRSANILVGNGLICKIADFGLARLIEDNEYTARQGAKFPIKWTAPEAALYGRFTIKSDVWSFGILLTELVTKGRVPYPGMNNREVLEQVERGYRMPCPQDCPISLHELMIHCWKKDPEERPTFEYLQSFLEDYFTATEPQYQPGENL

COCCN1CCN(Cc2ccc(-c3n[nH]c4c3C(=O)c3c(NC(=O)NN5CCOCC5)cccc3-4)cc2)CC1 [Compound B16, N-[3-(4-{[4-(2-methoxyethyl)piperazinyl]methyl}phenyl)-4-oxoindeno[2,3-d]pyrazol-5-yl](morpholin-4-ylamino)carboxamide dihydrochloride]
IC50 [1]: < 100 nM
IC50 [2]: < 5 nM
IC50 ([3]; kinase panel, read-out: Blk IC50): < 100 nM
IC50 [3, 5]: < 100 nM
IC50 ([4]; kinase panel, 10 μM ATP, read-out: Fyn IC50): < 100 nM
IC50 [4, 6]: < 50 nM

CC(C)N1CCN(C(=O)COc2ccc(-c3n[nH]c4c3C(=O)c3c(NC(=O)NN5CCOCC5)cccc3-4)cc2)CC1 [Compound A37]
IC50 [1]: < 50 nM
IC50 [2]: < 50 nM
IC50 [3, 5]: < 100 nM
IC50 [4, 6]: < 100 nM
